# Data: patent US20120225062A1 (priority 2011, published 2012)
# Assays:
# [1] = test system: KMS11 (human myeloma cell line); assay: Cell Proliferation Assay (CellTiter-Glo, 3 days); format: cell-based; details: KMS-11, 72 h, KMS11-luc cells
# In short: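 KMS11 myeloma cells, 2000 per well in IMDM with 10% FBS, exposed to compound for 3 days at 37° C. Viability read by CellTiter-Glo luminescence; EC50 derived.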
# [2] = target: Pim 1 (Homo sapiens, UniProt P11309); assay: Pim 1 AlphaScreen assay (high ATP)
# Chain of Pim 1 (P11309 whole entry): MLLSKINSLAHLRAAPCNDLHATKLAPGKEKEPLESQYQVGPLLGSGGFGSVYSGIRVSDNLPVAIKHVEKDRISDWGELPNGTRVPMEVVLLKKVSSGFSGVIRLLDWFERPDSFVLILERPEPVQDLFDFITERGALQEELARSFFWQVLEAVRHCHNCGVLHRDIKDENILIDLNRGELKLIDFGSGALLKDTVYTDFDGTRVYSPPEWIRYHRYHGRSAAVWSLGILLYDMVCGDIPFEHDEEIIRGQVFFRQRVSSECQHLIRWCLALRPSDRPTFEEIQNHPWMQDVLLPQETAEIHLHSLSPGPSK
# Description: The activity of Pim 1, Pim 2, & Pim 3 is measured using a homogeneous bead based system quantifying the amount of phosphorylated peptide substrate resulting from kinase-catalyzed phosphoryl transfer to a peptide substrate. Compounds to be tested are dissolved in 100% DMSO and directly distributed to a white 384-well plate at 0.25 μl per well. […] This is followed by the addition of 5 μl/well of Pim 1, Pim 2 or Pim 3 kinase in assay buffer (concentrations described below). Final assay concentrations (described below) are in 2.5% DMSO. The reactions are performed for ˜2 hours, then stopped by the addition of 10 μl of 0.75 μg/ml anti-phospho Ser/Thr antibody (Cell Signaling), 10 μg/ml Protein A AlphaScreen beads (Perkin Elmer), and 10 μg/ml streptavidin coated AlphaScreen beads in stop/detection buffer (50 mM EDTA, 95 mM Tris, pH=7.5, 0.01% Tween-20). The stopped reactions are incubated overnight in the dark. The phosphorylated peptide is detected via an oxygen anion initiated chemiluminescence/fluorescence cascade using the Envision plate reader (Perkin Elmer).
# [3] = target: Pim 2 (Homo sapiens, UniProt Q9P1W9); assay: Pim 2 AlphaScreen assay (high ATP)
# Chain of Pim 2 (Q9P1W9 whole entry): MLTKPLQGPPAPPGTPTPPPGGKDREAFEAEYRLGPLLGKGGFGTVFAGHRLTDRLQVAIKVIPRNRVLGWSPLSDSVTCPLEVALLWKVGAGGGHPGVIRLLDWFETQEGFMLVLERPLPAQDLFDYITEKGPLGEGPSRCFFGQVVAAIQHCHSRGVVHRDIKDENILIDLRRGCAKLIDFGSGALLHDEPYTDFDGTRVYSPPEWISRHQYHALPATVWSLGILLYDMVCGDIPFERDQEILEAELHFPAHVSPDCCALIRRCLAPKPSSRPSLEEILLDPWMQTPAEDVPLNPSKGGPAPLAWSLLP
# [4] = target: Pim 3 (Homo sapiens, UniProt Q86V86); assay: Pim 3 AlphaScreen assay (high ATP)
smiles,measurement,setting,value
"COCCOc1cc(F)c(-c2nc(C(=O)Nc3cnccc3N3C[C@@H](N)[C@H](O)[C@@H](C)C3)ccc2F)c(F)c1 [Example 22, N-(4-((3R,4R,5S)-3-amino-4-hydroxy-5-methylpiperidin-1-yl)pyridin-3-yl)-6-(2,6-difluoro-4-(2-methoxyethoxy)phenyl)-5-fluoropicolinamide]",EC50,[1],10 nM
same,IC50,[2],0.03 nM
same,IC50,[3],1.5 nM
same,IC50,[4],0.45 nM
"CSc1cc(F)c(-c2nc(C(=O)Nc3cnccc3N3C[C@@H](N)[C@H](O)[C@@H](C)C3)ccc2F)c(F)c1 [Example 23, N-(4-((3R,4R,5S)-3-amino-4-hydroxy-5-methylpiperidin-1-yl)pyridin-3-yl)-6-(2,6-difluoro-4-(methylthio)phenyl)-5-fluoropicolinamide]",EC50,[1],29 nM
same,IC50,[2],0.02 nM
same,IC50,[3],0.96 nM
same,IC50,[4],0.32 nM
"COCCOc1cc(F)c(-c2nc(C(=O)Nc3cnccc3[C@H]3C[C@@H](N)[C@H](O)[C@@H](C)C3)ccc2F)c(F)c1 [Example 24, N-(4-((1R,3R,4R,5S)-3-amino-4-hydroxy-5-methylcyclohexyl)pyridin-3-yl)-6-(2,6-difluoro-4-(2-methoxyethoxy)phenyl)-5-fluoropicolinamide]",EC50,[1],72 nM
same,IC50,[2],0.07 nM
same,IC50,[3],5.57 nM
same,IC50,[4],2.46 nM
"C[C@H]1CN(c2ccncc2NC(=O)c2ccc(F)c(-c3c(F)cc([S@+](C)[O-])cc3F)n2)C[C@@H](N)[C@@H]1O [Example 25, N-(4-((3R,4R,5S)-3-amino-4-hydroxy-5-methylpiperidin-1-yl)pyridin-3-yl)-6-(2,6-difluoro-4-((S)-methylsulfinyl)phenyl)-5-fluoropicolinamide]",EC50,[1],11 nM
same,IC50,[2],0.03 nM
same,IC50,[3],0.94 nM
same,IC50,[4],0.37 nM
"C[C@H]1CN(c2ccncc2NC(=O)c2ccc(F)c(-c3c(F)cc([S@@+](C)[O-])cc3F)n2)C[C@@H](N)[C@@H]1O [Example 26, N-(4-((3R,4R,5S)-3-amino-4-hydroxy-5-methylpiperidin-1-yl)pyridin-3-yl)-6-(2,6-difluoro-4-((R)-methylsulfinyl)phenyl)-5-fluoropicolinamide]",EC50,[1],42 nM
same,IC50,[2],0.05 nM
same,IC50,[3],1.88 nM
same,IC50,[4],2.21 nM
"C[C@@H]1C[C@H](N)C[C@H](c2ccncc2NC(=O)c2ccc(F)c(-c3c(F)ccc(OCCO)c3F)n2)C1 [Example 29, N-(4-((1R,3S,5S)-3-amino-5-methylcyclohexyl)pyridin-3-yl)-6-(2,6-difluoro-3-(2-hydroxyethoxy)phenyl)-5-fluoropicolinamide]",EC50,[1],64 nM
same,IC50,[2],0.04 nM
same,IC50,[3],2.33 nM
same,IC50,[4],1.08 nM
"C[C@H]1C[C@@H](c2ccncc2NC(=O)c2ccc(F)c(-c3c(F)ccc(OCCO)c3F)n2)C[C@@H](N)[C@@H]1O [Example 30, N-(4-((1R,3R,4R,5S)-3-amino-4-hydroxy-5-methylcyclohexyl)pyridin-3-yl)-6-(2,6-difluoro-3-(2-hydroxyethoxy)phenyl)-5-fluoropicolinamide]",EC50,[1],186 nM
same,IC50,[2],0.07 nM
same,IC50,[3],11.4 nM
same,IC50,[4],2.25 nM
"C[C@H]1C[C@@H](c2ccncc2NC(=O)c2ccc(F)c(-c3c(F)cc(OCCO)cc3F)n2)C[C@@H](N)[C@@H]1O [Example 32, N-(4-((1R,3R,4R,5S)-3-amino-4-hydroxy-5-methylcyclohexyl)pyridin-3-yl)-6-(2,6-difluoro-4-(2-hydroxyethoxy)phenyl)-5-fluoropicolinamide]",EC50,[1],52 nM
same,IC50,[2],0.06 nM
same,IC50,[3],4.76 nM
same,IC50,[4],1.9 nM
"C[C@@H]1C[C@H](N)C[C@H](c2ccncc2NC(=O)c2ccc(F)c(-c3c(F)cc(CCO)cc3F)n2)C1 [Example 33, N-(4-((1R,3S,5S)-3-amino-5-methylcyclohexyl)pyridin-3-yl)-6-(2,6-difluoro-4-(2-hydroxyethyl)phenyl)-5-fluoropicolinamide]",EC50,[1],13 nM
same,IC50,[2],0.02 nM
same,IC50,[3],1.52 nM
same,IC50,[4],1 nM
"C[C@H]1CN(c2ccncc2NC(=O)c2ccc(F)c(-c3c(F)cc(CCO)cc3F)n2)C[C@@H](N)[C@@H]1O [Example 35, N-(4-((3R,4R,5S)-3-amino-4-hydroxy-5-methylpiperidin-1-yl)pyridin-3-yl)-6-(2,6-difluoro-4-(2-hydroxyethyl)phenyl)-5-fluoropicolinamide]",EC50,[1],7 nM
same,IC50,[2],0.03 nM
same,IC50,[3],1.09 nM
same,IC50,[4],0.36 nM
"Cc1cc(F)c(-c2nc(C(=O)Nc3cnccc3N3C[C@@H](N)[C@H](O)[C@@H](C)C3)ccc2F)c(F)c1 [Example 37, N-(4-((3R,4R,5S)-3-amino-4-hydroxy-5-methylpiperidin-1-yl)pyridin-3-yl)-6-(2,6-difluoro-4-methylphenyl)-5-fluoropicolinamide]",EC50,[1],13 nM
same,IC50,[2],0.02 nM
same,IC50,[3],0.94 nM
same,IC50,[4],0.28 nM
"COCc1cc(F)c(-c2nc(C(=O)Nc3cnccc3N3C[C@@H](N)[C@H](O)[C@@H](C)C3)ccc2F)c(F)c1 [Example 38, N-(4-((3R,4R,5S)-3-amino-4-hydroxy-5-methylpiperidin-1-yl)pyridin-3-yl)-6-(2,6-difluoro-4-(methoxymethyl)phenyl)-5-fluoropicolinamide]",EC50,[1],10 nM
same,IC50,[2],0.03 nM
same,IC50,[3],1.35 nM
same,IC50,[4],0.47 nM
"COCc1cc(F)c(-c2nc(C(=O)Nc3cnccc3[C@H]3C[C@@H](N)[C@H](O)[C@@H](C)C3)ccc2F)c(F)c1 [Example 40, N-(4-((1R,3R,4R,5S)-3-amino-4-hydroxy-5-methylcyclohexyl)pyridin-3-yl)-6-(2,6-difluoro-4-(methoxymethyl)phenyl)-5-fluoropicolinamide]",EC50,[1],68 nM
same,IC50,[2],0.08 nM
same,IC50,[3],3.98 nM
same,IC50,[4],2.63 nM
"COCc1cc(F)c(-c2nc(C(=O)Nc3cnccc3[C@@H]3C[C@H](C)C[C@H](N)C3)ccc2F)c(F)c1 [Example 41, N-(4-((1R,3S,5S)-3-amino-5-methylcyclohexyl)pyridin-3-yl)-6-(2,6-difluoro-4-(methoxymethyl)phenyl)-5-fluoropicolinamide]",EC50,[1],22 nM
same,IC50,[2],0.04 nM
same,IC50,[3],2.78 nM
same,IC50,[4],2.14 nM
"C[C@H]1C[C@@H](c2ccncc2NC(=O)c2ccc(F)c(-c3c(F)cc(OCC4CC4)cc3F)n2)C[C@@H](N)[C@@H]1O [Example 42, N-(4-((1R,3R,4R,5S)-3-amino-4-hydroxy-5-methylcyclohexyl)pyridin-3-yl)-6-(4-(cyclopropylmethoxy)-2,6-difluorophenyl)-5-fluoropicolinamide]",EC50,[1],139 nM
same,IC50,[2],0.03 nM
same,IC50,[3],2.77 nM
same,IC50,[4],0.8 nM
"CCC(=O)c1cc(F)c(-c2nc(C(=O)Nc3cnccc3[C@@H]3C[C@H](C)C[C@H](N)C3)ccc2F)c(F)c1 [Example 43, N-(4-((1R,3S,5S)-3-amino-5-methylcyclohexyl)pyridin-3-yl)-6-(2,6-difluoro-4-propionylphenyl)-5-fluoropicolinamide]",EC50,[1],43 nM
same,IC50,[2],0.14 nM
same,IC50,[3],15.3 nM
same,IC50,[4],11.4 nM
"C[C@@H]1C[C@H](N)C[C@H](c2ccncc2NC(=O)c2ccc(F)c(-c3c(F)cc(C4(O)CC4)cc3F)n2)C1 [Example 44, N-(4-((1R,3S,5S)-3-amino-5-methylcyclohexyl)pyridin-3-yl)-6-(2,6-difluoro-4-(1-hydroxycyclopropyl)phenyl)-5-fluoropicolinamide]",EC50,[1],18 nM
same,IC50,[2],0.01 nM
same,IC50,[3],2.03 nM
same,IC50,[4],0.77 nM
